Target: T1, AXL (fusion protein of amino acids 464-885 of the intracellular domain of human AXL with glutathione transferase) (Homo sapiens, UniProt P30530)
T1 sequence (P30530 464-885 isoform P30530-2): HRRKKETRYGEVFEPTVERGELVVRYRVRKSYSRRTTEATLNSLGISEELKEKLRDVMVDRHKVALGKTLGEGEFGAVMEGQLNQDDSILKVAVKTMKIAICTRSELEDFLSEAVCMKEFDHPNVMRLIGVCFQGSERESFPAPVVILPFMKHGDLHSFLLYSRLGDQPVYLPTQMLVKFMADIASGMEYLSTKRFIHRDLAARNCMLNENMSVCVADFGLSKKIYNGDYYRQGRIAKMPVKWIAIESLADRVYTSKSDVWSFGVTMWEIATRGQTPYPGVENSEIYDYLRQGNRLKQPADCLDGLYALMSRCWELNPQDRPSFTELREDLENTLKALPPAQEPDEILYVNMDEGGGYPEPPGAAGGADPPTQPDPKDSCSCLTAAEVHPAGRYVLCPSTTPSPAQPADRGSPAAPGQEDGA
Test: Cell-Free Axl Kinase Inhibitory Activity

Row | SMILES | IC50 [nM]
1 | COc1ccc(-c2cnc(N)c(-c3ccc(NC(=O)c4cn(CC(F)(F)F)cc(-c5ccc(F)cc5)c4=O)cn3)c2)cc1OC [Example 87, N-[2′-Amino-5′-(3,4-dimethoxyphenyl)-2,3′-bipyridin-5-yl]-5-(4-fluorophenyl)-4-oxo-1-(2,2,2-trifluoroethyl)-1,4-dihydropyridine-3-carboxamide] | 1 to 10
2 | Nc1ncc(-c2cnn(C[C@H]3COCCO3)c2)cc1-c1ccc(NC(=O)c2cn(Cc3ccc(F)cc3)cc(C(=O)N3CCCC3)c2=O)cc1 [Example 71, N-[4-(2-Amino-5-{1-[(2S)-1,4-dioxan-2-ylmethyl]-1H-pyrazol-4-yl}pyridin-3-yl)phenyl]-1-(4-fluorobenzyl)-4-oxo-5-(pyrrolidin-1-ylcarbonyl)-1,4-dihydropyridine-3-carboxamide] | 0.1 to 1
3 | COc1cc(-c2cnc(N)c(-c3ccc(NC(=O)c4cn(CC(F)(F)F)cc(-c5ccc(F)cc5)c4=O)cc3)c2)ccc1OCCN1CCCC1 [Example 39, N-[4-(2-Amino-5-{3-methoxy-4-[2-(pyrrolidin-1-yl)ethoxy]phenyl}pyridin-3-yl)phenyl]-5-(4-fluorophenyl)-4-oxo-1-(2,2,2-trifluoroethyl)-1,4-dihydropyridine-3-carboxamide] | 0.1 to 1
4 | COc1cc(-c2cnc(N)c(-c3ccc(NC(=O)c4cn(Cc5ccccc5)cc(-c5ccc(F)cc5)c4=O)cc3)c2)ccc1OC[C@H]1COCCO1 [Example 41, N-[4-(2-Amino-5-{4-[(2R)-1,4-dioxan-2-ylmethoxy]-3-methoxyphenyl}pyridin-3-yl)phenyl]-1-benzyl-5-(4-fluorophenyl)-4-oxo-1,4-dihydropyridine-3-carboxamide] | 1 to 10
5 | COc1ccc(-c2cnc(N)c(-c3ccc(NC(=O)c4cn(Cc5ccccn5)cc(-c5ccc(F)cc5)c4=O)cc3)c2)cc1OC [Example 12, N-{4-[2-Amino-5-(3,4-dimethoxyphenyl)pyridin-3-yl]phenyl}-5-(4-fluorophenyl)-4-oxo-1-(pyridin-2-ylmethyl)-1,4-dihydropyridine-3-carboxamide] | 0.1 to 1
6 | COc1ccc(-c2cnc(N)c(-c3ccc(NC(=O)c4cn(CC(F)(F)F)cc(-c5ccc(F)cc5)c4=O)cc3F)c2)cc1OC [Example 29, N-{4-[2-Amino-5-(3,4-dimethoxyphenyl)pyridin-3-yl]-3-fluorophenyl}-5-(4-fluorophenyl)-4-oxo-1-(2,2,2-trifluoroethyl)-1,4-dihydropyridine-3-carboxamide] | 0.1 to 1
7 | COc1ccc(-c2cnc(N)c(-c3ccc(NC(=O)c4cn(Cc5ccc(F)cc5)cc(-c5ccc(F)cc5)c4=O)cc3)c2)cc1OC [Example 11, N-{4-[2-Amino-5-(3,4-dimethoxyphenyl)pyridin-3-yl]phenyl}-1-(4-fluorobenzyl)-5-(4-fluorophenyl)-4-oxo-1,4-dihydropyridine-3-carboxamide] | 0.1 to 1
8 | Nc1ncc(-c2cnn(C[C@H]3COCCO3)c2)cc1-c1ccc(NC(=O)c2cn(Cc3ccc(F)cc3)cc(C(=O)N3CCC(F)(F)C3)c2=O)cc1 [Example 73, N-[4-(2-Amino-5-{1-[(2S)-1,4-dioxan-2-ylmethyl]-1H-pyrazol-4-yl}pyridin-3-yl)phenyl]-5-[(3,3-difluoropyrrolidin-1-yl)carbonyl]-1-(4-fluorobenzyl)-4-oxo-1,4-dihydropyridine-3-carboxamide] | 10 to 20
9 | CCn1cc(C(=O)Nc2ccc(-c3cc(-c4ccc(OC[C@H]5COCCO5)c(OC)c4)cnc3N)cc2)c(=O)c(-c2ccc(F)cc2)c1 [Example 46, N-[4-(2-Amino-5-{4-[(2R)-1,4-dioxan-2-ylmethoxy]-3-methoxyphenyl}pyridin-3-yl)phenyl]-1-ethyl-5-(4-fluorophenyl)-4-oxo-1,4-dihydropyridine-3-carboxamide] | 1 to 10
10 | COCCn1cc(C(=O)Nc2ccc(-c3cc(-c4ccc(OC)c(OC)c4)cnc3N)cc2)c(=O)c(-c2ccc(F)cc2)c1 [Example 5, N-{4-[2-Amino-5-(3,4-dimethoxyphenyl)pyridin-3-yl]phenyl}-5-(4-fluorophenyl)-1-(2-methoxyethyl)-4-oxo-1,4-dihydropyridine-3-carboxamide] | 0.1 to 1
11 | COc1ccc(-c2cnc(N)c(-c3ccc(NC(=O)c4cn(Cc5ccncc5)cc(-c5ccc(F)cc5)c4=O)cc3)c2)cc1OC [Example 13, N-{4-[2-Amino-5-(3,4-dimethoxyphenyl)pyridin-3-yl]phenyl}-5-(4-fluorophenyl)-4-oxo-1-(pyridin-4-ylmethyl)-1,4-dihydropyridine-3-carboxamide] | 0.1 to 1
12 | COc1ccc(-c2cnc(N)c(-c3ccc(NC(=O)c4cn(CC(F)(F)F)cc(-c5ccc(Cl)cc5)c4=O)cc3)c2)cc1OC [Example 25, N-{4-[2-Amino-5-(3,4-dimethoxyphenyl)pyridin-3-yl]phenyl}-5-(4-chlorophenyl)-4-oxo-1-(2,2,2-trifluoroethyl)-1,4-dihydropyridine-3-carboxamide] | 1 to 10
13 | COc1ccc(-c2cnc(N)c(-c3ccc(NC(=O)c4cn(C)cc(-c5ccc(F)cc5)c4=O)cc3)c2)cc1OC [Example 2, N-{4-[2-Amino-5-(3,4-dimethoxyphenyl)pyridin-3-yl]phenyl}-5-(4-fluorophenyl)-1-methyl-4-oxo-1,4-dihydropyridine-3-carboxamide] | 1 to 10
14 | COc1ccc(-c2cnc(N)c(-c3ccc(NC(=O)c4cn(CC(F)(F)F)cc(-c5ccccc5F)c4=O)cc3)c2)cc1OC [Example 21, N-{4-[2-Amino-5-(3,4-dimethoxyphenyl)pyridin-3-yl]phenyl}-5-(2-fluorophenyl)-4-oxo-1-(2,2,2-trifluoroethyl)-1,4-dihydropyridine-3-carboxamide] | 1 to 10
15 | Cc1nnc(-c2cn(Cc3ccc(F)cc3)cc(C(=O)Nc3ccc(-c4cc(-c5cnn(C[C@H]6COCCO6)c5)cnc4N)cc3)c2=O)o1 [Example 74, N-[4-(2-Amino-5-{1-[(2S)-1,4-dioxan-2-ylmethyl]-1H-pyrazol-4-yl}pyridin-3-yl)phenyl]-1-(4-fluorobenzyl)-5-(5-methyl-1,3,4-oxadiazol-2-yl)-4-oxo-1,4-dihydropyridine-3-carboxamide] | 0.1 to 1

Other lines, results leading:

Row | IC50 [nM] | SMILES
16 | 1 to 10 | Cc1cc(=O)c(C(=O)Nc2ccc(-c3cc(-c4cnn(C)c4)cnc3N)cc2)cn1Cc1ccc(F)cc1 [Example 57, N-{4-[2-Amino-5-(1-methyl-1H-pyrazol-4-yl)pyridin-3-yl]phenyl}-1-(4-fluorobenzyl)-6-methyl-4-oxo-1,4-dihydropyridine-3-carboxamide]
17 | 1 to 10 | CN(C)C(=O)c1cn(Cc2ccc(F)cc2)cc(C(=O)Nc2ccc(-c3cc(-c4cnn(C)c4)cnc3N)cc2)c1=O [Example 60, N′-{4-[2-Amino-5-(1-methyl-1H-pyrazol-4-yl)pyridin-3-yl]phenyl}-1-(4-fluorobenzyl)-N,N-dimethyl-4-oxo-1,4-dihydropyridine-3,5-dicarboxamide]
18 | 1 to 10 | COc1ccc(-n2cc(-c3ccc(F)cc3)c(=O)c(C(=O)Nc3ccc(-c4cc(-c5cnn(C)c5)cnc4N)cc3)n2)cc1 [Example 61, N-{4-[2-Amino-5-(1-methyl-1H-pyrazol-4-yl)pyridin-3-yl]phenyl}-5-(4-fluorophenyl)-1-(4-methoxyphenyl)-4-oxo-1,4-dihydropyridazine-3-carboxamide]
19 | 1 to 10 | Cc1cn(Cc2ccc(F)cc2)cc(C(=O)Nc2ccc(-c3cc(-c4cnn(C)c4)cnc3N)cc2)c1=O [Example 58, N-{4-[2-Amino-5-(1-methyl-1H-pyrazol-4-yl)pyridin-3-yl]phenyl}-1-(4-fluorobenzyl)-5-methyl-4-oxo-1,4-dihydropyridine-3-carboxamide]
20 | 1 to 10 | CCn1cc(C(=O)Nc2ccc(-c3cc(-c4cnn(C)c4)cnc3N)cc2)c(=O)c(-c2ccccc2)c1 [Example 52, N-{4-[2-Amino-5-(1-methyl-1H-pyrazol-4-yl)pyridin-3-yl]phenyl}-1-ethyl-4-oxo-5-phenyl-1,4-dihydropyridine-3-carboxamide]
21 | 1 to 10 | COCCn1cc(C(=O)Nc2ccc(-c3cc(-c4cnn(C[C@H]5COCCO5)c4)cnc3N)cc2)c(=O)c(-c2ccc(F)cc2)c1 [Example 66, N-[4-(2-Amino-5-{1-[(2S)-1,4-dioxan-2-ylmethyl]-1H-pyrazol-4-yl}pyridin-3-yl)phenyl]-5-(4-fluorophenyl)-1-(2-methoxyethyl)-4-oxo-1,4-dihydropyridine-3-carboxamide]
22 | 1 to 10 | Cn1cc(-c2cnc(N)c(-c3ccc(NC(=O)c4cn(CC(F)(F)F)cc(-c5ccccc5)c4=O)cc3)c2)cn1 [Example 54, N-{4-[2-Amino-5-(1-methyl-1H-pyrazol-4-yl)pyridin-3-yl]phenyl}-4-oxo-5-phenyl-1-(2,2,2-trifluoroethyl)-1,4-dihydropyridine-3-carboxamide]
23 | 1 to 10 | Cn1cc(-c2cnc(N)c(-c3ccc(NC(=O)c4cn(CCF)cc(-c5ccccc5)c4=O)cc3)c2)cn1 [Example 53, N-{4-[2-Amino-5-(1-methyl-1H-pyrazol-4-yl)pyridin-3-yl]phenyl}-1-(2-fluoroethyl)-4-oxo-5-phenyl-1,4-dihydropyridine-3-carboxamide]
24 | 1 to 10 | CC(O)Cn1cc(-c2cnc(N)c(-c3ccc(NC(=O)c4cn(CCF)cc(-c5ccc(F)cc5)c4=O)cc3)c2)cn1 (racemic) [Example 63, N-(4-{2-Amino-5-[1-(2-hydroxypropyl)-1H-pyrazol-4-yl]pyridin-3-yl}phenyl)-1-(2-fluoroethyl)-5-(4-fluorophenyl)-4-oxo-1,4-dihydropyridine-3-carboxamide]

Source: patent publication US8933103B2, “Pyridone derivatives” (Daiichi Sankyo Company, Limited, priority 2012, dated 2015)
